Patent US20140107051A1, “ISOFLAVONES FOR TREATING MUCOPOLYSACCHARIDOSES” (INSTYTUT FARMACEUTYCZNY, priority 2005, published 2014)

Legend:
[1] = tested on: cultured human skin fibroblasts derived from normal individuals; assay: 35S-sulphate incorporation test of glycosaminoglycans synthesis, normal cells; format: cell-based; settings: 30 μM; for activity at 30 µM: Homo sapiens, Skin fibroblast, DMSO control = 1, read-out: Relative GAG synthesis (converted to 1 cell), Normal cells
Description: (§1) The activity of isoflavones was evaluated by the measure of glycosaminoglycans synthesis in 35S-sulphate incorporation test comprising incubation of the radiolabelled 35S-sulfate into GAGs in cultured human skin fibroblasts derived from normal individuals (control) and patients affected with mucopolysaccharidose (Murata et al., Arch Biochem Biophys 2003; 413: 229-235).
(§2) The negative control was DMSO (diluent for genistein and all derivatives), the positive control—genistein. […] Experiment with each cell line has been repeated twice, and every measurement has been done twice.

[2] = tested on: fibroblasts of patients affected with MPS I; assay: 35S-sulphate incorporation test of glycosaminoglycans synthesis, MPS I cells; format: cell-based, human; settings: Homo sapiens, Fibroblast, 30 μM; DMSO control = 1; read-out: Relative GAG synthesis (converted to 1 cell), MPS I
Description: as §1, §2

[3] = tested on: cultured human skin fibroblasts derived from patients affected with mucopolysaccharidose; assay: 35S-sulphate incorporation test of glycosaminoglycans synthesis, different human cell lines / MPS types; format: cell-based; settings: 30 μM; both cell lines of Table 2
Description: as §1, §2

MPS IIIB fibroblasts = assay: Number of lysosomal structures by electron microscopy, MPS IIIB; format: cell-based, human; settings: 30 μM
[4] = Proliferation 144 h (Table 4); format: cell-based; settings: read-out: Proliferation 144 h IC50
MPS IIIA fibroblasts = assay: Number of lysosomal structures by electron microscopy, MPS IIIA; format: cell-based, human; settings: 30 μM

Nc1ccccc1C(=O)Oc1ccc(-c2coc3cc(O)cc(O)c3c2=O)cc1 [IFG-001]
CC50 at 24 h (in vitro): 13.9 µM | activity at 30 µM [1]: 84% | activity at 30 µM [2]: 170%

CC(=O)OCC1OC(Oc2cc(O)c3c(=O)c(-c4ccc(O)cc4)coc3c2)C=CC1OC1OC(COC(C)=O)C(OC(C)=O)C(OC(C)=O)C1OC(C)=O (centres unmarked) [IFG-021]
CC50 at 24 h (in vitro): 11 µM | activity at 30 µM [1]: 57% | activity at 30 µM [2]: 92%

C=CCOc1cc(O)c2c(=O)c(-c3ccc(O)cc3)coc2c1 [IFG-027]
CC50 at 24 h (in vitro): 13.1 µM | Inhibition in relation to genistein, first symbol (normal cells) [1]: 0/0 | activity at 30 µM [1]: 22% | activity at 30 µM [2]: 57% | influence on GAG synthesis compared with genistein (in words) [3]: an activity comparable with genistein

O=C(Oc1cc(O)c2c(=O)c(-c3ccc(O)cc3)coc2c1)c1ccccc1O [IFG-034]
Number of structures per 100 μm^2 of cellular cross section ± SD, amorphous (MPS IIIB fibroblasts): 0.15 ± 0.08 per 100 μm^2 | Number of structures per 100 μm^2 of cellular cross section ± SD, complexed (MPS IIIB fibroblasts): 0.06 ± 0.05 per 100 μm^2 | Number of structures per 100 μm^2 of cellular cross section ± SD, lamellar (MPS IIIB fibroblasts): 0.20 ± 0.16 per 100 μm^2 | Number of structures per 100 μm^2 of cellular cross section ± SD, total number (MPS IIIB fibroblasts): 0.41 ± 0.16 per 100 μm^2 | CC50 at 24 h (in vitro): > 30 µM | CC50 at 48 h (in vitro): > 30 µM | IC50 [4]: 22.9 µM | Number of structures per 100 μm^2 of cellular cross section ± SD, amorphous (MPS IIIA fibroblasts): 0.17 ± 0.09 per 100 μm^2 | Number of structures per 100 μm^2 of cellular cross section ± SD, complexed (MPS IIIA fibroblasts): 0.27 ± 0.14 per 100 μm^2 | Number of structures per 100 μm^2 of cellular cross section ± SD, lamellar (MPS IIIA fibroblasts): 0.17 ± 0.09 per 100 μm^2 | Number of structures per 100 μm^2 of cellular cross section ± SD, total number (MPS IIIA fibroblasts): 0.61 ± 0.20 per 100 μm^2 | activity at 30 µM [1]: 40% | activity at 30 µM [2]: 93%

C=CCOc1ccc(-c2coc3cc(OCC=C)cc(O)c3c2=O)cc1 [IFG-035]
CC50 at 24 h (in vitro): 22.6 µM | Inhibition in relation to genistein, first symbol (normal cells) [1]: 0 | activity at 30 µM [1]: 26% | activity at 30 µM [2]: 117% | influence on GAG synthesis compared with genistein (in words) [3]: an activity comparable with genistein, but only for one cell line

CC(C)(C)OC(=O)COc1ccc(-c2coc3cc(OCC(=O)OC(C)(C)C)cc(O)c3c2=O)cc1 [IFG-042]
CC50 at 24 h (in vitro): 22 µM | Inhibition in relation to genistein, first symbol (normal cells) [1]: + | activity at 30 µM [1]: 14% | activity at 30 µM [2]: 49% | influence on GAG synthesis compared with genistein (in words) [3]: stronger influence on GAG synthesis than genistein

O=c1c(-c2ccc(O)cc2)coc2cc(OCc3ccccc3)cc(O)c12 [IFG-043]
CC50 at 24 h (in vitro): 14.5 µM | Inhibition in relation to genistein, first symbol (normal cells) [1]: + | activity at 30 µM [1]: 17% | activity at 30 µM [2]: 44% | influence on GAG synthesis compared with genistein (in words) [3]: an activity comparable with genistein

CC(C)(C)OC(=O)COc1ccc(-c2coc3cc(O)cc(O)c3c2=O)cc1 [IFG-048]
CC50 at 24 h (in vitro): 20.3 µM | activity at 30 µM [1]: 70% | activity at 30 µM [2]: 92% | influence on GAG synthesis compared with genistein (in words) [3]: an activity comparable with genistein, but only for one cell line

O=c1c(-c2ccc(O)cc2)coc2cc(OCC3CO3)cc(O)c12 (centres unmarked) [IFG-050]
CC50 at 24 h (in vitro): 11.6 µM | Inhibition in relation to genistein, first symbol (normal cells) [1]: + | activity at 30 µM [1]: 10% | activity at 30 µM [2]: 73% | influence on GAG synthesis compared with genistein (in words) [3]: stronger influence on GAG synthesis than genistein

C=CCOc1ccc(-c2coc3cc(OCc4ccccc4)cc(O)c3c2=O)cc1 [IFG-051]
CC50 at 24 h (in vitro): 14.6 µM | Inhibition in relation to genistein, first symbol (normal cells) [1]: 0 | activity at 30 µM [1]: 32% | activity at 30 µM [2]: 96% | influence on GAG synthesis compared with genistein (in words) [3]: an activity comparable with genistein, but only for one cell line

O=C(O)COc1cc(O)c2c(=O)c(-c3ccc(O)cc3)coc2c1 [IFG-054]
CC50 at 24 h (in vitro): > 30 µM | CC50 at 48 h (in vitro): > 30 µM | IC50 [4]: > 30 µM | Inhibition in relation to genistein, first symbol (normal cells) [1]: 0/0 | activity at 30 µM [1]: 30% | activity at 30 µM [2]: 53%

O=C(O)CCCC(=O)Oc1ccc(-c2coc3cc(OCc4ccccc4)cc(O)c3c2=O)cc1 [IFG-060]
CC50 at 24 h (in vitro): 14.9 µM | Inhibition in relation to genistein, first symbol (normal cells) [1]: − | activity at 30 µM [1]: 43% | activity at 30 µM [2]: 31%

COc1ccc(COc2cc(O)c3c(=O)c(-c4ccc(O)cc4)coc3c2)cc1 [IFG-062]
CC50 at 24 h (in vitro): 12.1 µM | activity at 30 µM [1]: 316% | activity at 30 µM [2]: 561%

C=CCOC(=O)Oc1cc(O)c2c(=O)c(-c3ccc(O)cc3)coc2c1 [IFG-063]
CC50 at 24 h (in vitro): 51.5 µM | activity at 30 µM [1]: 75% | activity at 30 µM [2]: 187%

CC(C)Oc1ccc(-c2coc3cc(OCc4ccccc4)cc(O)c3c2=O)cc1 [IFG-064]
CC50 at 24 h (in vitro): 6.6 µM | activity at 30 µM [1]: 68% | activity at 30 µM [2]: 60% | influence on GAG synthesis compared with genistein (in words) [3]: an activity comparable with genistein, but only for one cell line

CC(C)Oc1ccc(-c2coc3cc(OCc4ccccc4)cc(OC(C)C)c3c2=O)cc1 [IFG-065]
CC50 at 24 h (in vitro): 22.7 µM | activity at 30 µM [1]: 152% | activity at 30 µM [2]: 97%

CC(=O)Oc1ccc(-c2coc3cc(OCc4ccccc4)cc(O)c3c2=O)cc1 [IFG-067]
CC50 at 24 h (in vitro): 15.1 µM | activity at 30 µM [1]: 67% | activity at 30 µM [2]: 61%

COC(=O)COc1cc(O)c2c(=O)c(-c3ccc(O)cc3)coc2c1 [IFG-070, [5-hydroxy-3-(4-hydroxyphenyl)-4-oxo-4H-chromen-7-yloxy]-acetic acid methyl ester]
CC50 at 24 h (in vitro): > 30 µM | CC50 at 48 h (in vitro): > 30 µM | IC50 [4]: 48.1 µM

CC(=O)OCCCCCOc1cc(O)c2c(=O)c(-c3ccc(O)cc3)coc2c1 [IFG-071, acetic acid 5-[5-hydroxy-3-(4-hydroxyphenyl)-4-oxo-4H-chromen-7-yloxy]-pentyl ester]
Number of structures per 100 μm^2 of cellular cross section ± SD, amorphous (MPS IIIB fibroblasts): 0.13 ± 0.09 per 100 μm^2 | Number of structures per 100 μm^2 of cellular cross section ± SD, complexed (MPS IIIB fibroblasts): 0.07 ± 0.06 per 100 μm^2 | Number of structures per 100 μm^2 of cellular cross section ± SD, lamellar (MPS IIIB fibroblasts): 0.07 ± 0.07 per 100 μm^2 | Number of structures per 100 μm^2 of cellular cross section ± SD, total number (MPS IIIB fibroblasts): 0.26 ± 0.13 per 100 μm^2 | CC50 at 24 h (in vitro): > 30 µM | CC50 at 48 h (in vitro): 57.6 µM | IC50 [4]: 17.9 µM | Number of structures per 100 μm^2 of cellular cross section ± SD, amorphous (MPS IIIA fibroblasts): 0.25 ± 0.11 per 100 μm^2 | Number of structures per 100 μm^2 of cellular cross section ± SD, complexed (MPS IIIA fibroblasts): 0.26 ± 0.09 per 100 μm^2 | Number of structures per 100 μm^2 of cellular cross section ± SD, lamellar (MPS IIIA fibroblasts): 0.28 ± 0.13 per 100 μm^2 | Number of structures per 100 μm^2 of cellular cross section ± SD, total number (MPS IIIA fibroblasts): 0.79 ± 0.22 per 100 μm^2

O=c1c(-c2ccc(O)cc2)coc2cc(OCCCO)cc(O)c12 [IFG-072, 5-hydroxy-3-(4-hydroxyphenyl)-7-(3-hydroxypropoxy)-chromen-4-one]
Number of structures per 100 μm^2 of cellular cross section ± SD, amorphous (MPS IIIB fibroblasts): 0.14 ± 0.10 per 100 μm^2 | Number of structures per 100 μm^2 of cellular cross section ± SD, complexed (MPS IIIB fibroblasts): 0.16 ± 0.08 per 100 μm^2 | Number of structures per 100 μm^2 of cellular cross section ± SD, lamellar (MPS IIIB fibroblasts): 0.11 ± 0.12 per 100 μm^2 | Number of structures per 100 μm^2 of cellular cross section ± SD, total number (MPS IIIB fibroblasts): 0.41 ± 0.20 per 100 μm^2 | CC50 at 24 h (in vitro): > 30 µM | CC50 at 48 h (in vitro): 32.5 µM | IC50 [4]: 14.1 µM | Number of structures per 100 μm^2 of cellular cross section ± SD, amorphous (MPS IIIA fibroblasts): 0.34 ± 0.17 per 100 μm^2 | Number of structures per 100 μm^2 of cellular cross section ± SD, complexed (MPS IIIA fibroblasts): 0.28 ± 0.10 per 100 μm^2 | Number of structures per 100 μm^2 of cellular cross section ± SD, lamellar (MPS IIIA fibroblasts): 0.20 ± 0.10 per 100 μm^2 | Number of structures per 100 μm^2 of cellular cross section ± SD, total number (MPS IIIA fibroblasts): 0.82 ± 0.23 per 100 μm^2

O=c1c(-c2ccc(O)cc2)coc2cc(OCCO)cc(O)c12 [IFG-073, 5-hydroxy-7-(2-hydroxyethoxy)-3-(4-hydroxyphenyl)-chromen-4-one]
CC50 at 24 h (in vitro): 27.5 µM | CC50 at 48 h (in vitro): 21.7 µM | IC50 [4]: 16.1 µM
